This passage reports Potency shift value and EC50 results from patent publication US10494380B2, “Nitrogen-containing tricyclic derivatives having HIV replication inhibitory activity” (priority 2015, dated 2019).

Like-named read-outs stand apart in the source and are kept apart here.

The test system of assay [1] is HIV. The assay is classed as cell-based. The following applies: EC50 in the presence of human serum (25%) versus without human serum, MT-4 cells. As to the method: To confirm the influence of human serum on anti-HIV activity as necessary, human serum was added and determined EC50 in this condition. Human serum (100 μL/well) was dispensed into each anti-HIV active substance at a designated concentration dispensed 50 μL each in advance into a 96-well microtiter plate, and the plate was incubate at room temperature for 1 hour. To the serum-free plate, only culture medium (100 μL/well) was dispensed into 96-well microtiter plate. MT-4 cells (3×10^4 cells/well) was infected with 3 μL/well of HIV solution diluted to an appropriate concentration (600 pfu/50 μL) by the required number of wells and incubated at 37° C. for 1 hour. The infected cells were centrifuged at 1200 rpm for 5 minutes, the supernatant was discarded, and the infected cells were dispersed into culture medium for the required number of wells at 50 μL/well. Infected cell suspension was dispensed into a 96-well microtiter plate of which anti-HIV active substance and human serum prepared in advance. The cell mixture was mixed with a plate mixer and cultured in a CO2 incubator for 4 days. The EC50 in the presence of human serum was calculated in the same manner as in Test Example 1 and the ratio of EC50 in the presence of human serum and EC50 in the absence of human serum was calculated as the potency shift value. […]

Assay [2] relates to T125A mutant virus (HIV-1 NL-432 recombinant molecular clone, IN gene). In words: HIV replication inhibition assay against integrase 124/125 mutant virus (Test Example 2). The class given is cell-based. Summed up:
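MT-4 cells (2.5×10^4 per well) infected with 60 pfu of 293T-derived HIV-1 NL-432 clone carrying integrase 124/125 point mutations, in presence of compound, cultured 4 days at 37 °C. Viability by MTT formazan at 560/690 nm; EC50 = concentration inhibiting 50% of virus-induced cytotoxicity.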

[3] abbreviates: Human immunodeficiency virus 1, MT4, read-out: EC50 against T125A mutant virus, T125A mutant virus (HIV-1 NL-432 IN gene), MT-4 cells, MTT.
Where [4] appears, read: T125A mutant virus (HIV-1 NL-432 IN gene), MT-4 cells, MTT, read-out: EC50 against T125A mutant virus.

What is called EC50 is the concentration needed to bring the measured effect to its halfway point. In the case of `Cc1c([C@H](OC(C)(C)C)C(=O)O)c(-c2c(F)cc(F)cc2F)c2cc(C)n3c2c1N(C)CC3` [Compound I-191], the Potency shift value in assay [1] is 7.4. The EC50 in assay [2] (setting [3]) worked out at 13 nM.
Regarding `Cc1c([C@H](OC(C)(C)C)C(=O)O)c(-c2ccc(Cl)cc2)c2cc(C)n3c2c1N(c1cccc(=O)n1C)CC3` [Compound I-219], in assay [1], the Potency shift value was 7.6. Further, in assay [2] (setting [4]), the EC50 is 43 nM.
Turning to `Cc1ccc(-c2c([C@H](OC(C)(C)C)C(=O)O)c(C)c3c4c2cc(C)n4CCN3c2ncc(CN3CCOCC3)cn2)cc1` [Compound I-348], the Potency shift value in assay [1] came to 21. Further, in assay [2] (setting [3]), the EC50 came out at 5 nM.
In the case of `Cc1ccc(-c2c([C@H](OC(C)(C)C)C(=O)O)c(C)c3c4c2cc(C)n4CCN3c2cccc(CN3CCOCC3)n2)cc1` [Compound I-217], in assay [1], the Potency shift value stood at 9.1. Moreover, in assay [2] (setting [4]), the EC50 is 39 nM.
As for `Cc1ccc(-c2c([C@H](OC(C)(C)C)C(=O)O)c(C)c3c4c2cc(C)n4CCN3c2cccc(CO)n2)cc1` [Compound I-216], in assay [1], the Potency shift value stood at 9.2. Also, the EC50 in assay [2] (setting [4]) turned out to be 20 nM.
Regarding `Cc1ccc(-c2c([C@H](OC(C)(C)C)C(=O)O)c(C)c3c4c2cc(C)n4CCN3CCOC(F)F)cc1` [Compound I-208], the Potency shift value in assay [1] came out at 11. Also, in assay [2] (setting [4]), the EC50 was determined as 24 nM.
`Cc1c([C@H](OC(C)(C)C)C(=O)O)c(-c2ccc(Cl)cc2)c2cc(C)n3c2c1N(c1nc2ccccc2n1C)CC3` [Compound I-242]: in assay [1], the Potency shift value is listed as 11. For the same molecule, the EC50 in assay [2] (setting [3]) stood at 6.4 nM.
Take `Cc1ccc(-c2c([C@H](OC(C)(C)C)C(=O)O)c(Cl)c3c4c2cc(C)n4CCN3c2nc3c(s2)CCN(C)C3)cc1` [Compound I-352]: the Potency shift value in assay [1] amounted to 10. Moreover, the EC50 in assay [2] (setting [3]) worked out at 14 nM.
The matching figures for `Cc1ccc(-c2c([C@H](OC(C)(C)C)C(=O)O)c(C)c3c4c2cc(C)n4CCN3c2cccc(C(=O)N(C)C)n2)cc1` [Compound I-269]: 7.4 and 29 nM.
The matching figures for `Cc1ccc(-c2c([C@H](OC(C)(C)C)C(=O)O)c(Cl)c3c4c2cc(C)n4CCN3c2ncc(OCCN(C)C)cn2)cc1` [Compound I-350]: 4.3 and 22 nM.
As to `COCCOc1cnc(N2CCn3c(C)cc4c(-c5ccc(Cl)cc5)c([C@H](OC(C)(C)C)C(=O)O)c(C)c2c43)nc1` [Compound I-234], the Potency shift value in assay [1] is on record as 19. For the same molecule, in assay [2] (setting [3]), the EC50 turned out to be 3.6 nM.
For `Cc1c([C@H](OC(C)(C)C)C(=O)O)c(-c2ccc(Cl)cc2)c2cc(C)n3c2c1N(C(N)=O)CC3` [Compound I-173], the Potency shift value in assay [1] is reported as 4. Moreover, the EC50 in assay [2] (setting [3]) is 71 nM.
Consider `Cc1c([C@H](OC(C)(C)C)C(=O)O)c(-c2ccc(Cl)cc2)c2cc(C)n3c2c1N(c1ncc(OCC2(F)COC2)cn1)CC3` [Compound I-259], for which the Potency shift value in assay [1] is 15. Moreover, the EC50 in assay [2] (setting [3]) was 4.4 nM.
On to `Cc1ccc(-c2c([C@H](OC(C)(C)C)C(=O)O)c(C)c3c4c2cc(C)n4CCN3c2ncc(OC3COC3)cn2)cc1` [Compound I-280], for which, in assay [1], the Potency shift value worked out at 21. Moreover, the EC50 in assay [2] (setting [3]) was found to be 5.3 nM.
For the molecule `Cc1cc(F)c(-c2c([C@H](OC(C)(C)C)C(=O)O)c(C)c3c4c2cc(C)n4CCN3CCN(C)C)c(F)c1` [Compound I-248], the Potency shift value in assay [1] is 1.5. Also, the EC50 in assay [2] (setting [3]) was 67 nM.
Turning to `Cc1c([C@H](OC(C)(C)C)C(=O)O)c(-c2ccc(Cl)cc2)c2cc(C)n3c2c1N(c1ncc(-c2ccc(F)cc2)cn1)CC3` [Compound I-239], the Potency shift value in assay [1] came to 16. Besides, in assay [2] (setting [3]), the EC50 was 22 nM.
The matching figures for `Cc1c(-c2c([C@H](OC(C)(C)C)C(=O)O)c(C)c3c4c2cc(C)n4CCN3C)cc(F)c2c1CCCO2` [Compound I-159]: 8.8 and 16 nM.
Regarding `Cc1ccc(-c2c([C@H](OC(C)(C)C)C(=O)O)c(C)c3c4c2cc(C)n4CCN3c2ncc(CCO)cn2)cc1` [Compound I-335], the Potency shift value in assay [1] was 36. The EC50 in assay [2] (setting [3]) turned out to be 14 nM.
With `Cc1c([C@H](OC(C)(C)C)C(=O)O)c(-c2ccc(Cl)cc2)c2cc(C)n3c2c1N(c1ncc(CN(C)C)cn1)CC3` [Compound I-313], the Potency shift value in assay [1] came out at 7.7. Moreover, the EC50 in assay [2] (setting [3]) amounted to 8.8 nM.
As to `Cc1c([C@H](OC(C)(C)C)C(=O)O)c(-c2ccc(Cl)cc2)c2cc(C)n3c2c1N(c1ncccc1F)CC3` [Compound I-193], the Potency shift value in assay [1] is 21. Moreover, in assay [2] (setting [3]), the EC50 came to 2.8 nM.
With `Cc1ccc(-c2c([C@H](OC(C)(C)C)C(=O)O)c(C)c3c4c2cc(C)n4CCN3c2ncc(CN3CCN(C)CC3)cn2)cc1` [Compound I-349], the Potency shift value in assay [1] came out at 3.6. Moreover, the 50% effective concentration (EC50) in assay [2] (setting [3]) is 30 nM.
Take `Cc1cc2c(-c3ccc(Cl)cc3)c([C@H](OC(C)(C)C)C(=O)O)c(Cl)c3c2n1CCN3C` [Compound I-228]: the Potency shift value in assay [1] is reported as 9.1. In assay [2] (setting [3]), the EC50 amounted to 2.6 nM.
Turning to `Cc1ccc(-c2c([C@H](OC(C)(C)C)C(=O)O)c(C)c3c4c2cc(C)n4CCN3c2ncc(Oc3ccnc4ccccc34)cn2)cc1` [Compound I-340], the Potency shift value in assay [1] is reported as 18. In assay [2] (setting [3]), the EC50 is 15 nM.
For the molecule `Cc1ccc(-c2c([C@H](OC(C)(C)C)C(=O)O)c(F)c3c4c2cc(C)n4CCN3C)cc1` [Compound I-179], in assay [1], the Potency shift value is 23. Besides, the EC50 in assay [2] (setting [3]) came out at 83 nM.
Regarding `Cc1ccc(-c2c([C@H](OC(C)(C)C)C(=O)O)c(C)c3c4c2cc(C)n4CCN3c2ncc(C(=O)N(C)C)cn2)cc1` [Compound I-250], the Potency shift value in assay [1] is on record as 19. In assay [2] (setting [3]), the EC50 is 9.9 nM.
Consider `Cc1c([C@H](OC(C)(C)C)C(=O)O)c(-c2ccc(Cl)cc2)c2cc(C)n3c2c1N(c1ncc(C2CCOCC2)cn1)CC3` [Compound I-311], for which, in assay [1], the Potency shift value was 15. For the same molecule, the concentration for a half-maximal effect (EC50) in assay [2] (setting [3]) worked out at 3.1 nM.
The like results for `Cc1ccc(-c2c([C@H](OC(C)(C)C)C(=O)O)c(C)c3c4c2cc(C)n4CCN3c2ncc(Oc3nc(C)nc4ccccc34)cn2)cc1` [Compound I-343] were, in that order, 11 and 21 nM.
Turning to `COc1cnc(N2CCn3c(C)cc4c(-c5ccc(F)cc5)c([C@H](OC(C)(C)C)C(=O)O)c(C)c2c43)nc1` [Compound I-185], in assay [1], the Potency shift value is listed as 15. Further, the EC50 in assay [2] (setting [3]) is 7.1 nM.
For `Cc1ccc(-c2c([C@H](OC(C)(C)C)C(=O)O)c(C)c3c4c2cc(C)n4CCN3c2ncc(Oc3ncccn3)cn2)cc1` [Compound I-330], the Potency shift value in assay [1] came to 39. For the same molecule, in assay [2] (setting [3]), the EC50 is 7.7 nM.
Consider `Cc1ccc(-c2c([C@H](OC(C)(C)C)C(=O)O)c(C)c3c4c2cc(C)n4CCN3c2ncc(OCCN(C)S(C)(=O)=O)cn2)cc1` [Compound I-225], for which, in assay [1], the Potency shift value worked out at 9.7. Moreover, the EC50 in assay [2] (setting [4]) worked out at 11 nM.
With `CNCCOc1cnc(N2CCn3c(C)cc4c(-c5ccc(C)cc5)c([C@H](OC(C)(C)C)C(=O)O)c(C)c2c43)nc1` [Compound I-224], in assay [1], the Potency shift value worked out at 3.3. Besides, the EC50 in assay [2] (setting [4]) stood at 79 nM.
On to `Cc1ccc(-c2c([C@H](OC(C)(C)C)C(=O)O)c(Cl)c3c4c2cc(C)n4CCN3)cc1` [Compound I-247], for which the Potency shift value in assay [1] is on record as 7.6. Moreover, in assay [2] (setting [3]), the EC50 was found to be 8.3 nM.
Take `COc1ccc(N2CCn3c(C)cc4c(-c5ccc(Cl)cc5)c([C@H](OC(C)(C)C)C(=O)O)c(C)c2c43)nc1` [Compound I-192]: the Potency shift value in assay [1] is recorded as 11. Further, the EC50 in assay [2] (setting [3]) came out at 4.6 nM.
For `COCCOC(=O)Nc1cnc(N2CCn3c(C)cc4c(-c5ccc(C)cc5)c([C@H](OC(C)(C)C)C(=O)O)c(C)c2c43)nc1` [Compound I-203], in assay [1], the Potency shift value turned out to be 30. In addition, in assay [2] (setting [4]), the EC50 came to 13 nM.
As for `Cc1ccc(-c2c([C@H](OC(C)(C)C)C(=O)O)c(C)c3c4c2cc(C)n4CCN3c2ccc(N3CCCC3=O)cn2)cc1` [Compound I-288], the Potency shift value in assay [1] was 11. Besides, the EC50 in assay [2] (setting [3]) stood at 5.3 nM.
Turning to `CCOCCN1CCn2c(C)cc3c(-c4ccc(C)cc4)c([C@H](OC(C)(C)C)C(=O)O)c(C)c1c32` [Compound I-207], in assay [1], the Potency shift value is recorded as 8.1. Moreover, the EC50 in assay [2] (setting [4]) worked out at 19 nM.
In the case of `Cc1c([C@H](OC(C)(C)C)C(=O)O)c(-c2ccc(Cl)cc2)c2cc(C)n3c2c1OC(C)C3` (stereo partly drawn) [Compound I-196], in assay [1], the Potency shift value was found to be 11. Moreover, the EC50 in assay [2] (read-out: EC50 against T125A mutant virus, T125A mutant virus (HIV-1 NL-432 IN gene), MT-4 cells, MTT) is 18 nM.
As to `Cc1c([C@H](OC(C)(C)C)C(=O)O)c(-c2ccc(Cl)cc2)c2cc(C)n3c2c1C=CC3` [Compound I-174], the Potency shift value in assay [1] turned out to be 14. For the same molecule, the half-maximal effective concentration (EC50) in assay [2] (setting [3]) was 55 nM.
Consider `Cc1c([C@H](OC(C)(C)C)C(=O)O)c(-c2cc3ccccc3s2)c2cc(C)n3c2c1N(CCN(C)C)CC3` [Compound I-319], for which the Potency shift value in assay [1] was determined as 3.4. In assay [2] (setting [3]), the EC50 worked out at 87 nM.
